Measurements as given in the NIST ThermoML archive (doi:10.1021/je020125e).
Several values for one entry are separate records, joined by “and”; a condition that tells them apart may be missing. Identical values can stand only once. Numbers after ± are expanded uncertainties.

Details: 101.33 kPa, Liquid, Hot wire method

CCCC(C)C [2-methylpentane]
Details	thermal conductivity [W/m/K]	thermal diffusivity [m2/s]
256.56 K	0.1182 ± 0.00082	–
256.89 K	0.1181 ± 0.00081	–
257.29 K	0.1179 ± 0.00081	–
257.79 K	–	8.23e-08 ± 1.5e-09
258.59 K	–	8.18e-08 ± 1.5e-09
259.61 K	–	8.15e-08 ± 1.5e-09
277.01 K	0.1114 ± 0.00077	–
277.35 K	0.1113 ± 0.00077	–
277.8 K	0.1111 ± 0.00077	–
278.28 K	–	7.65e-08 ± 1.4e-09
279.1 K	–	7.61e-08 ± 1.4e-09
280.22 K	–	7.57e-08 ± 1.4e-09
297.36 K	0.1049 ± 0.00073	–
297.71 K	0.1048 ± 0.00073	–
298.16 K	0.1046 ± 0.00073	–
298.66 K	–	7.11e-08 ± 1.3e-09
299.5 K	–	7.09e-08 ± 1.3e-09
300.57 K	–	7.04e-08 ± 1.3e-09
314.15 K	0.09989 ± 0.0007	–
314.51 K	0.09978 ± 0.0007	–
314.99 K	0.09959 ± 0.0007	–
315.5 K	–	6.71e-08 ± 1.3e-09
316.34 K	–	6.69e-08 ± 1.3e-09
317.47 K	–	6.65e-08 ± 1.3e-09
328.29 K	0.09597 ± 0.00068	–
328.64 K	0.09583 ± 0.00068	–
329.15 K	0.09564 ± 0.00068	–
329.7 K	–	6.42e-08 ± 1.2e-09
330.51 K	–	6.39e-08 ± 1.2e-09
331.7 K	–	6.36e-08 ± 1.2e-09

CCC(C)(C)CC [3,3-dimethylpentane]
Details	thermal conductivity [W/m/K]	thermal diffusivity [m2/s]
256.11 K	0.1116 ± 0.00091	–
256.71 K	0.1112 ± 0.00091	–
256.82 K	–	7.8e-08 ± 1.5e-09
257.04 K	0.1113 ± 0.00091	–
257.62 K	–	7.76e-08 ± 1.5e-09
258.25 K	–	7.71e-08 ± 1.5e-09
276.17 K	0.106 ± 0.00087	–
276.5 K	0.1058 ± 0.00087	–
276.78 K	0.1057 ± 0.00087	–
276.87 K	–	7.25e-08 ± 1.4e-09
277.64 K	–	7.2e-08 ± 1.4e-09
278.3 K	–	7.18e-08 ± 1.4e-09
296.01 K	0.1005 ± 0.00083	–
296.03 K	0.1006 ± 0.00083	–
296.39 K	0.1004 ± 0.00083	–
296.63 K	0.1002 ± 0.00083	–
296.64 K	–	6.59e-08 ± 1.3e-09
296.69 K	–	6.66e-08 ± 1.3e-09
297.52 K	–	6.68e-08 ± 1.3e-09
298.08 K	–	6.59e-08 ± 1.3e-09
316.38 K	0.09528 ± 0.0008	–
316.67 K	0.09499 ± 0.00079	–
316.93 K	0.09481 ± 0.00079	–
317.05 K	–	6.22e-08 ± 1.2e-09
317.7 K	–	6.09e-08 ± 1.2e-09
318.3 K	–	6.05e-08 ± 1.2e-09
333.75 K	0.09074 ± 0.00076	–
334.1 K	0.09063 ± 0.00076	–
334.37 K	0.09047 ± 0.00076	5.74e-08 ± 1.1e-09
335.16 K	–	5.76e-08 ± 1.1e-09
335.77 K	–	5.74e-08 ± 1.1e-09

CCC(CC)CC [3-ethylpentane]
Details	thermal conductivity [W/m/K]	thermal diffusivity [m2/s]
257.28 K	0.1253 ± 0.0023	–
257.54 K	0.1252 ± 0.0023	–
257.83 K	0.1251 ± 0.0023	–
258.36 K	–	8.28e-08 ± 2.1e-09
259.11 K	–	8.26e-08 ± 2.1e-09
259.89 K	–	8.25e-08 ± 2.1e-09
277.62 K	0.119 ± 0.0022	–
277.89 K	0.1188 ± 0.0022	–
278.19 K	0.1187 ± 0.0022	–
278.75 K	–	7.78e-08 ± 2e-09
279.49 K	–	7.73e-08 ± 2e-09
280.3 K	–	7.72e-08 ± 2e-09
296.33 K	0.1132 ± 0.0021	–
296.62 K	0.113 ± 0.0021	–
296.78 K	0.113 ± 0.0021	–
297.48 K	–	7.29e-08 ± 1.9e-09
298.26 K	–	7.28e-08 ± 1.9e-09
298.69 K	–	7.28e-08 ± 1.9e-09
313.96 K	0.1081 ± 0.002	–
314.27 K	0.1079 ± 0.002	–
314.58 K	0.1078 ± 0.002	–
315.16 K	–	6.95e-08 ± 1.8e-09
315.99 K	–	6.93e-08 ± 1.8e-09
316.82 K	–	6.9e-08 ± 1.8e-09
331.22 K	0.1032 ± 0.0019	–
331.29 K	0.1029 ± 0.0019	–
331.56 K	0.1031 ± 0.0019	–
332.45 K	–	6.59e-08 ± 1.7e-09
333.34 K	–	6.59e-08 ± 1.7e-09
334.2 K	–	6.55e-08 ± 1.7e-09

CCCCC(C)CC (configuration not stated) [3-methylheptane]
Details	thermal conductivity [W/m/K]	thermal diffusivity [m2/s]
259.08 K	0.1255 ± 0.0018	–
259.32 K	0.1253 ± 0.0018	–
259.58 K	0.1252 ± 0.0018	–
260.01 K	–	8.29e-08 ± 1.9e-09
260.65 K	–	8.28e-08 ± 1.9e-09
261.32 K	–	8.27e-08 ± 1.9e-09
277.99 K	0.1204 ± 0.0017	–
278.23 K	0.1203 ± 0.0017	–
278.37 K	0.1202 ± 0.0017	–
278.95 K	–	7.83e-08 ± 1.7e-09
279.57 K	–	7.83e-08 ± 1.7e-09
279.93 K	–	7.84e-08 ± 1.8e-09
297.36 K	0.115 ± 0.0016	–
297.63 K	0.115 ± 0.0016	–
297.91 K	0.115 ± 0.0016	–
298.32 K	–	7.41e-08 ± 1.7e-09
299.02 K	–	7.44e-08 ± 1.7e-09
299.76 K	–	7.47e-08 ± 1.7e-09
315.56 K	0.1101 ± 0.0015	–
315.84 K	0.1101 ± 0.0015	–
316.12 K	0.1099 ± 0.0015	–
316.52 K	–	6.98e-08 ± 1.6e-09
317.22 K	–	7e-08 ± 1.6e-09
317.93 K	–	6.98e-08 ± 1.6e-09
331.93 K	0.1058 ± 0.0015	–
332.21 K	0.1057 ± 0.0015	–
332.51 K	0.1056 ± 0.0015	–
332.93 K	–	6.7e-08 ± 1.5e-09
333.64 K	–	6.7e-08 ± 1.5e-09
334.38 K	–	6.69e-08 ± 1.5e-09

CCCC(C)CC (configuration not stated) [3-methylhexane]
Details	thermal conductivity [W/m/K]	thermal diffusivity
256.62 K	0.1236 ± 0.00085	–
257 K	0.1233 ± 0.00085	–
257.38 K	0.1231 ± 0.00085	–
257.59 K	–	8.59e-08 ± 1.6e-09 m2/s
258.63 K	–	8.5e-08 ± 1.6e-09 m2/s
259.54 K	–	8.43e-08 ± 1.6e-09 m2/s
269.72 K	0.1196 ± 0.00082	–
270.11 K	0.1193 ± 0.00082	–
270.44 K	0.1191 ± 0.00082	–
270.7 K	–	8.14e-08 ± 1.5e-09 m2/s
271.73 K	–	8.1e-08 ± 1.5e-09 m2/s
272.58 K	–	8.04e-08 ± 1.5e-09 m2/s
284.9 K	0.115 ± 0.0008	–
285.32 K	0.1148 ± 0.0008	–
285.66 K	0.1146 ± 0.00079	–
285.92 K	–	7.81e-08 ± 1.5e-09 m2/s
287.01 K	–	7.78e-08 ± 1.5e-09 m2/s
287.89 K	–	7.72e-08 ± 1.4e-09 m2/s
296.55 K	0.1113 ± 0.00077	–
296.95 K	0.1113 ± 0.00077	–
297.35 K	0.111 ± 0.00077	–
297.62 K	–	7.5e-08 ± 1.4e-09 m2/s
298.65 K	–	7.47e-08 ± 1.4e-09 m2/s
299.67 K	–	7.41e-08 ± 1.4e-09 m2/s
311.54 K	0.1073 ± 0.00075	–
311.97 K	0.107 ± 0.00075	–
312.34 K	0.1068 ± 0.00074	–
312.6 K	–	7.22e-08 ± 1.4e-09 m2/s
313.66 K	–	7.08e-08 ± 1.3e-09 m2/s
314.6 K	–	7.07e-08 ± 1.3e-09 m2/s
321.52 K	0.1046 ± 0.00073	–
321.98 K	0.1042 ± 0.00073	–
322.34 K	0.104 ± 0.00073	–
322.62 K	–	7.02e-08 ± 1.3e-09 m2/s
323.75 K	–	6.94e-08 ± 1.3e-09 m2/s
324.66 K	–	6.86e-08 m2/s and 6.87e-08 m2/s
332.24 K	0.1017 ± 0.00072	–
332.69 K	0.1013 ± 0.00071	–
333.09 K	0.1011 ± 0.00071	–
333.3 K	–	6.69e-08 ± 1.3e-09 m2/s
334.41 K	–	6.61e-08 ± 1.3e-09 m2/s
335.4 K	–	6.61e-08 ± 1.3e-09 m2/s
343.42 K	0.09857 ± 0.0007	–
343.89 K	0.09831 ± 0.00069	–
344.28 K	0.09813 ± 0.00069	–
344.3 K	0.09807 ± 0.00069	–
344.46 K	–	6.42e-08 ± 1.2e-09 m2/s
345.61 K	–	6.37e-08 ± 1.2e-09 m2/s
346.56 K	–	6.32e-08 ± 1.2e-09 m2/s
346.62 K	–	6.37e-08 ± 1.2e-09 m2/s
